According to ChEMBL document CHEMBL5505979, “Novel aminothiazoximone-corbelled ethoxycarbonylpyrimidones with antibiofilm activity to conquer Gram-negative bacteria through potential multitargeting effects” (Eur J Med Chem, 2024):
In brackets after ≈: the same amount, converted by molar mass. Activity calls are given as the source filed them. No cut-off for these calls is given here.

How the values were obtained:
Escherichia coli [1] = experiment: Anti-bacterial activity against Escherichia coli JM109 assessed as inhibition of bacterial growth; format: functional
Escherichia coli [2] = experiment: Anti-bacterial activity against Escherichia coli ATCC 25922 assessed as inhibition of bacterial growth; format: functional
Acinetobacter baumannii [3] = experiment: Anti-bacterial activity against Acinetobacter baumannii R674 assessed as inhibition of bacterial growth; format: functional
Candida tropicalis = experiment: Anti-fungal activity against Candida tropicalis assessed as inhibition of fungal growth; format: functional; settings: Candida tropicalis; read-out: MIC
Acinetobacter baumannii [4] = experiment: Bactericidal activity against Acinetobacter baumannii assessed as bacterial killing at 1 to 8 times of MIC concentration measured upto 8 hrs by time-kill kinetics assay; format: functional, organism-based
Escherichia coli [5] = experiment: Anti-bacterial activity against Escherichia coli ATCC 25922 assessed as inhibition of bacterial growth measured upto 9 hrs; format: functional, organism-based
[6] = Hemolysis in human RBC assessed as hemolysis rate at effective bactericidal concentration for 3 hrs; format: toxicity, cell-based, Erythrocyte; settings: red blood cells, read-out: Activity
[7] = Cytotoxicity against human L02 cells assessed as cell viability at effective concentration measured after 24 hrs; format: toxicity, cell-based; settings: read-out: Activity
Acinetobacter baumannii [8] = experiment: Antibiofilm activity against Acinetobacter baumannii assessed as inhibition rate of bio-film formation at 8 times of MIC concentration by Crystal violet assay relative to control; format: functional
Acinetobacter baumannii [9] = experiment: Antibiofilm activity against Acinetobacter baumannii assessed as decrease in biofilm formation at MIC concentration relative to control; format: functional; parameters: scale not given: the % may be the effect or the level left
Acinetobacter baumannii [10] = experiment: Reduction of biofilm virulent factors in Acinetobacter baumannii assessed as decrease in extracellular polymeric substances (EPS) by measuring optical density at 490 nm at 1 times of MIC concentration by congo red binding assay (reference value: 0.188 to 0.192); format: functional
Acinetobacter baumannii [11] = experiment: Anti-bacterial activity against Acinetobacter baumannii assessed as inhibition of bacterial growth measured after 20 passages at sub-MIC concentration by multiple resistance study; format: functional, organism-based
Acinetobacter baumannii [12] = experiment: Anti-bacterial activity against Acinetobacter baumannii assessed as growth inhibition by measuring optical density measured at 1 time of MIC in presence of 1/4 times of MIC of norfloxacin by Checkerboard assay (reference value: 0.157); format: functional
Acinetobacter baumannii [13] = experiment: Anti-bacterial activity against Acinetobacter baumannii assessed as growth inhibition by measuring optical density measured at 1 time of MIC in presence of 1 times of MIC of norfloxacin by Checkerboard assay (reference value: 0.157); format: functional
Acinetobacter baumannii [14] = experiment: Anti-bacterial activity against Acinetobacter baumannii assessed as growth inhibition by measuring optical density measured at 1 time of MIC in presence of 2 times of MIC of norfloxacin by Checkerboard assay (reference value: 0.157); format: functional
Acinetobacter baumannii [15] = experiment: Anti-bacterial activity against Acinetobacter baumannii assessed as growth inhibition by measuring optical density measured at 1/2 time of MIC in presence of 2 times of MIC of norfloxacin by Checkerboard assay (reference value: 0.152); format: functional
Acinetobacter baumannii [16] = experiment: Anti-bacterial activity against Acinetobacter baumannii assessed as growth inhibition by measuring optical density measured at 1/4 time of MIC in presence of 2 times of MIC of norfloxacin by Checkerboard assay (reference value: 0.152); format: functional
Escherichia coli [17] = experiment: Anti-bacterial activity against Escherichia coli ATCC 25922 assessed as growth inhibition by measuring optical density measured at 2 time of MIC in presence of 1/8 times of MIC of norfloxacin by Checkerboard assay (reference value: 0.128); format: functional
Escherichia coli [18] = experiment: Anti-bacterial activity against Escherichia coli ATCC 25922 assessed as growth inhibition by measuring optical density measured at 2 time of MIC in presence of 1 times of MIC of norfloxacin by Checkerboard assay (reference value: 0.128); format: functional
Escherichia coli [19] = experiment: Anti-bacterial activity against Escherichia coli ATCC 25922 assessed as growth inhibition by measuring optical density measured at 1 time of MIC in presence of 1 times of MIC of norfloxacin by Checkerboard assay (reference value: 0.125); format: functional
Escherichia coli [20] = experiment: Anti-bacterial activity against Escherichia coli ATCC 25922 assessed as growth inhibition by measuring optical density measured at 1 time of MIC in presence of 2 times of MIC of norfloxacin by Checkerboard assay (reference value: 0.125); format: functional
Escherichia coli [21] = experiment: Anti-bacterial activity against Escherichia coli ATCC 25922 assessed as growth inhibition by measuring optical density measured at 1/2 time of MIC in presence of 1 times of MIC of norfloxacin by Checkerboard assay (reference value: 0.124); format: functional
Escherichia coli [22] = experiment: Anti-bacterial activity against Escherichia coli ATCC 25922 assessed as growth inhibition by measuring optical density measured at 1/2 time of MIC in presence of 2 times of MIC of norfloxacin by Checkerboard assay (reference value: 0.124); format: functional
Escherichia coli [23] = experiment: Anti-bacterial activity against Escherichia coli ATCC 25922 assessed as growth inhibition by measuring optical density measured at 1/4 time of MIC in presence of 1/8 times of MIC of norfloxacin by Checkerboard assay (reference value: 0.128); format: functional
Escherichia coli [24] = experiment: Anti-bacterial activity against Escherichia coli ATCC 25922 assessed as growth inhibition by measuring optical density measured at 1/4 time of MIC in presence of 1 times of MIC of norfloxacin by Checkerboard assay (reference value: 0.128); format: functional
Escherichia coli [25] = experiment: Induction of membrane disturbance in Escherichia coli ATCC 25922 assessed as increase in fluorescence intensity at 0.5 to 8 times of MIC concentration measured after 90 mins by Propidium iodide assay; format: functional, organism-based
Cell membrane [26] = experiment: Induction of membrane damage in Acinetobacter baumannii assessed as increase in fluorescence intensity at 1 to 4 times of MIC concentration measured after 90 mins by DiSC3 fluorescent probe assay; format: cell membranes
Cell membrane [27] = experiment: Induction of membrane damage in Escherichia coli ATCC 25922 assessed as increase in fluorescence intensity at 1 to 4 times of MIC concentration measured after 90 mins by DiSC3 fluorescent probe assay; format: cell membranes
Cell membrane [28] = experiment: Induction of physical destruction of cell membrane in Escherichia coli ATCC 25922 assessed as leakage of nucleic acid by measuring absorbance of 260 nm at 1/4 to 8 times of MIC concentration; format: cell membranes
Cell membrane [29] = experiment: Induction of physical destruction of cell membrane in Escherichia coli ATCC 25922 assessed as leakage of protein at 1/4 to 8 times of MIC concentration by Coomassie blue quantitative assay; format: cell membranes
Escherichia coli [30] = experiment: Reduction in metabolic activity of Escherichia coli ATCC 25922 assessed as biomass of the fluorescent pink change to non-fluorescent blue; format: functional, organism-based
Escherichia coli [31] = experiment: Anti-bacterial activity against Escherichia coli ATCC 25922 assessed as bacterial mortality at 1 to 4 MIC concentration by propidium iodide based fluorescence microscopy relative to control; format: functional, organism-based
Acinetobacter baumannii [32] = experiment: Induction of intracellular ROS accumulation in Acinetobacter baumannii assessed as larger green fluorescence densities at 1/4 to 2 times of MIC by microscopic imaging assay; format: functional, organism-based
Calf thymus DNA = experiment: Binding affinity to calf thymus DNA assessed as decrease in fluorescence intensity at 530 nm by Acridine Orange based fluorescence spectroscopy; format: nucleic-acid assay; settings: Bos taurus

`CCCCc1nc(Cl)c(C2NC(=O)NC(CN3CCN(C(=O)/C(=N/OC)c4csc(N)n4)CC3)=C2C(=O)OCC)[nH]1` (centres undefined) showed an MIC (Escherichia coli [1]) of 13 µM (≈ 7.91 µg/mL), an MIC (Escherichia coli [2]) of 7 µM (≈ 4.26 µg/mL) and an MIC (Acinetobacter baumannii [3]) of 7 µM (≈ 4.26 µg/mL). For the same compound, the MIC (Candida tropicalis) was 53 µM (≈ 32.2 µg/mL), the Activity (Acinetobacter baumannii [4]) was “Active” and the Activity (Escherichia coli [5]) was “Dose-Dependent Effect”. The hemolysis at 3 h [6] was < 5%, the viability at 24 h [7] was > 95% and the “inhibition (INH)” value (Acinetobacter baumannii [8]) was >70.2%. The Activity (Acinetobacter baumannii [9]) was 18.6%, the OD (Acinetobacter baumannii [10]) was 0.163 and the Activity (Acinetobacter baumannii [11]) was “Active”. For the same compound, the OD (Acinetobacter baumannii [12]) was 0.109, the OD (Acinetobacter baumannii [13]) was 0.052 and the OD (Acinetobacter baumannii [14]) was 0.053. For the same compound, the OD (Acinetobacter baumannii [15]) was 0.051, the OD (Acinetobacter baumannii [16]) was 0.116 and the OD (Escherichia coli [17]) was 0.122. For the same compound, the OD (Escherichia coli [18]) was 0.052, the OD (Escherichia coli [19]) was 0.056 and the OD (Escherichia coli [20]) was 0.051. It also gave an OD (Escherichia coli [21]) of 0.082, an OD (Escherichia coli [22]) of 0.051 and an OD (Escherichia coli [23]) of 0.122. For the same compound, the OD (Escherichia coli [24]) was 0.112, the Activity (Escherichia coli [25]) was “Active” and the Activity (Cell membrane [26]) was “inactive”. For the same compound, the Activity (Cell membrane [27]) was “inactive”, the Activity (Cell membrane [28]) was “Active” and the Activity (Cell membrane [29]) was “Active”. For the same compound, the Activity (Escherichia coli [30]) was “Active”, the Activity (Escherichia coli [31]) was “Active” and the Activity (Acinetobacter baumannii [32]) was “Active”. The Activity (Calf thymus DNA) was “Active”.
